For 53 compounds, IC50 results are on record in patent US20120207763A1, “PYRROLOPYRIMIDINE COMPOUNDS AND THEIR USES” (ASTEX THERAPEUTICS LIMITED, priority 2006, published 2012).

SMILES strings stand for the structures. Read-outs that look alike come from different tables or passages of the source.

Common to all, as to type: biochemical
One assay deals with T1, JAK-3 (Homo sapiens, UniProt P52333).
T1 construct: GST fusion constructs of the kinase domains of both enzymes are used; GST
The assay is described as follows: JAK LANCE enzymatic assay (JAK-3). The text has this:
Binding of cytokines and certain growth factors to their respective receptors trigger activation of Janus kinases, which phosphorylate members of the STAT family. Phosphorylated STAT molecules dimerize and migrate to the nucleus where they bind to DNA and initiate transcription of responsive genes. Inhibitors of pathways downstream of cytokine/growth factor receptors have therapeutic potential for several indications. An enzymatic assay for JAK-3 and JAK-2 has been developed to identify T-cell selective inhibitors. GST fusion constructs of the kinase domains of both enzymes are used and a biotinylated, tyrosine containing peptide serves as substrate. Phosphorylation of this peptide by the respective kinase is quantified with an europium-labeled anti-phosphotyrosine antibody (Eu-PT66) as energy donor and a streptavidin-allophycocyanine conjugate (SA-APC) as energy acceptor. The assay has been established in a 384 well format.
In the JAK LANCE™ assay, a biotinylated peptide is incubated together with compounds and ATP in buffer. The phosphorylation reaction starts after addition of JAK kinase. After incubation at RT the reaction is stopped with EDTA and the product detected by addition Streptavidin-Allophycocyanin and Europium-labeled antiphosphotyrosine antibody. The signal is measured using an EnVision Reader. Exc: 320 nm, Em, Donor: 615 nm and Em, Acceptor: 665 nm in time resolved fashion with a delay of […].

Assay [1] deals with CDK2/Cyclin-A kinase complex (Homo sapiens, UniProt P24941). Kind of assay: CDK2 IMAP fluorescence polarization assay. The note with it: Table E; read-out: CDK2cyA IMAP/IC50 [umol l − 1]. The text has this:
In order to test the CDK2 activity of the compounds of the invention, the CDK2 assay is a flourescence polarization assay, where the enzyme is a purified active CDK2/Cyclin-A kinase complex and the substrate is a synthesized peptide derived from Histone H1. This assay utilizes the IMAP technology from Molecular Devices. The active CDK2/Cyclin-A complex phosphorylates the peptide substrate, which is conjugated with the TAMRA tag. The phosphorylated site is then recognized by a metal containing molecule that interacts with the TAMRA tag to induce a high flourescence polarization. The compounds that inhibit the CDK2 kinase activity would inhibit the flourescence output of the assay.

The target of a further assay is CDK4 (Homo sapiens, UniProt P11802). Kind of assay: CDK4 HTRF assay. The settings on record: Table E; read-out: CDK4 HTRF/IC50 [umol l − 1]. A general note: Time-resolved FRET reads energy transfer from a long-lived donor to a nearby acceptor.
CDK4, sequence (P11802 whole entry): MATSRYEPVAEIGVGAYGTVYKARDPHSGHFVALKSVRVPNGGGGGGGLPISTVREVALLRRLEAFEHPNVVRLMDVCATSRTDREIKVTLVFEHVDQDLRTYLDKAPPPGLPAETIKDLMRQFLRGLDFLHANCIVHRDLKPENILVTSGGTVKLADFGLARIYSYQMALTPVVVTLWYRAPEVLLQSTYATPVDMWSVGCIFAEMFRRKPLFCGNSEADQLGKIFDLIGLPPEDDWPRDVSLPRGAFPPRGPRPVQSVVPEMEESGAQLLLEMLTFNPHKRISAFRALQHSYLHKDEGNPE
CDK4, sequence (P24385 whole entry partner): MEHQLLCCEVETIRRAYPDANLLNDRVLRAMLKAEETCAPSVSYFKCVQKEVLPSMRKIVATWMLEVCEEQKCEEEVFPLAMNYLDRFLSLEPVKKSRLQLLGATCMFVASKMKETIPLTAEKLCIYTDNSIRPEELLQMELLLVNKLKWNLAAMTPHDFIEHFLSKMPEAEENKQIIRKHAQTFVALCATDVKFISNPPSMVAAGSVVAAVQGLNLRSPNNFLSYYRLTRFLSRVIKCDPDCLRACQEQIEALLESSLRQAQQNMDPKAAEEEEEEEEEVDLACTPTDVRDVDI
The mark [2] stands for this setting: Table B, read-out: Jak-3 Lance/ IC50 [nmol I-1].

T1 sequence (P52333 822-1111 limits assumed): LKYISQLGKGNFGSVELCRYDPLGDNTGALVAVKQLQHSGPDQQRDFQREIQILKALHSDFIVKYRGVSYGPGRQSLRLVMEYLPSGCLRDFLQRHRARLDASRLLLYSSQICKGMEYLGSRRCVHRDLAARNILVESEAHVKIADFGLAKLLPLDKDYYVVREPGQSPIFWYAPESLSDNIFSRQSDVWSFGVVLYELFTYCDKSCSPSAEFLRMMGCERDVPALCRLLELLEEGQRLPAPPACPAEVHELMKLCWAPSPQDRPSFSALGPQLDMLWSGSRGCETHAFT

Regarding `Cc1cn(C2CCCC2)c2nc(Nc3ccc(N4CCNCC4)cn3)ncc12` [drawing 97], the IC50 on JAK-3 (setting [2]) is no less than 100 nM.
With `CCC(CC)n1c(C=O)cc2cnc(Nc3ccc(N4CCN(C(C)=O)CC4)cc3)nc21` [drawing 118], on JAK-3 (setting [2]), the IC50 was no more than 100 nM.
For `Cc1cn(C2CCCCC2)c2nc(Nc3ccc(N4CCNCC4)cn3)ncc12` [drawing 127], the IC50 at JAK-3 (setting [2]) was no less than 100 nM.
As for `O=C1Cc2cnc(Nc3ccc(N4CCOCC4)cc3)nc2N1`, the IC50 at JAK-3 (Table A, read-out: Jak-3/ IC50) is no less than 100 nM.
In the case of `CCC(CC)N1C(=O)Cc2cnc(Nc3cccc(OCCn4ccnc4)c3)nc21`, the IC50 on JAK-3 (Table A, read-out: Jak-3/ IC50) is no less than 100 nM.
Take `CCC(c1ccccc1)N1C(=O)Cc2cnc(Nc3cccc(OCCN4CCCC4)c3)nc21` (centres unmarked): the IC50 at JAK-3 (Table A, read-out: Jak-3/ IC50) was no less than 100 nM.
Still for that read-out and setting: under `CCC(CC)N1C(=O)Cc2cnc(Nc3ccc(N4CCC(OC(=O)c5ccccc5)CC4)cc3)nc21` stands no less than 100 nM; under `CCC(CC)N1C(=O)Cc2cnc(Nc3ccc(C(=O)NCCN4CCCCC4)cc3)nc21`, no less than 100 nM.
On the same count and under the same terms, under `CCC(CC)N1C(=O)Cc2cnc(Nc3ccc(C(=O)N(C)C)cc3)nc21` stands no less than 100 nM; under `CN1CCN(c2ccc(Nc3ncc4c(n3)N(C3CCCC3)C(=O)C4)cc2)CC1`, no less than 100 nM.
On to `Cc1cn(C2CCCC2)c2nc(Nc3ccc(N4CCN(C)CC4)cc3)ncc12`, for which the IC50 at JAK-3 (setting [2]) is no less than 100 nM.
For the compound `CCC(CC)N1C(=O)Cc2cnc(Nc3cccc(OCCN4CCN(C)CC4)c3)nc21`, at JAK-3 (Table A, read-out: Jak-3/ IC50), the IC50 is no less than 100 nM.
The same measure, in the same setting: next, `CCC(CC)N1C(=O)Cc2cnc(Nc3ccc(-n4cncn4)cc3)nc21`: no less than 100 nM.
Regarding `CC(=O)N1CCN(c2ccc(Nc3ncc4c(C)cn(C5CCCCC5)c4n3)cc2)CC1` [drawing 120], the IC50 at JAK-3 (setting [2]) was no less than 100 nM.
`CCC(CC)n1ccc2cnc(Nc3ccc(N4CCN(C(C)=O)CC4)cn3)nc21` [drawing 81]: the IC50 on JAK-3 (Table A, read-out: Jak-3/ IC50) is no less than 100 nM.
As to `CCC(CC)N1C(=O)Cc2cnc(Nc3ccc4[nH]ncc4c3)nc21`, the IC50 on JAK-3 (Table A, read-out: Jak-3/ IC50) is no less than 100 nM.
Same read-out and setting: next, `COc1ccc(C(=O)N2CCN(C)CC2)cc1Nc1ncc2c(n1)NC(=O)C2` [drawing 20]: no less than 100 nM; `CCC(CC)N1C(=O)Cc2cnc(Nc3cccc(OCCN4CCCC4)c3)nc21`: no more than 100 nM; `CCC(CC)N1C(=O)Cc2cnc(Nc3ccc(NS(=O)(=O)c4ccc(C)cc4)cc3)nc21`: no less than 100 nM.
Take `CCC(CC)N1C(=O)Cc2cnc(Nc3cccc(OCCN(CC)CC)c3)nc21`: on JAK-3 (Table A, read-out: Jak-3/ IC50), the IC50 is no less than 100 nM.
In the case of `CCC(CC)N1C(=O)Cc2cnc(Nc3ccc(C(=O)NC(C)(C)C)cc3)nc21`, the IC50 on JAK-3 (Table A, read-out: Jak-3/ IC50) is no less than 100 nM.
Turning to `CCC(CC)n1ccc2cnc(Nc3ccc(N4CCN(C(C)=O)CC4)cc3)nc21` [drawing 51], the IC50 on JAK-3 (Table A, read-out: Jak-3/ IC50) is no more than 100 nM.
Regarding `CCC(CC)n1cnc2cnc(Nc3ccc(N4CCN(C(C)=O)CC4)cc3)nc21`, the IC50 on JAK-3 (Table A, read-out: Jak-3/ IC50) is no less than 100 nM.
In the case of `CCC(CC)n1c(=O)n(C)c2cnc(Nc3ccc(N4CCN(C(C)=O)CC4)cc3)nc21`, the IC50 on JAK-3 (Table A, read-out: Jak-3/ IC50) is no more than 100 nM.
Same read-out and setting: next, `CCC(CC)N1C(=O)Cc2cnc(Nc3ccc(N4CCN(C)CC4)cn3)nc21`: no less than 100 nM; `CCN1C(=O)Cc2cnc(Nc3ccc(N4CCN(C)CC4)cc3)nc21`: no less than 100 nM.
Consider `Cc1cccnc1Nc1ncc2c(C)cn(C3CCCC3)c2n1` [Example 297], for which the IC50 is greater than 10000 nM in assay [1] and 10000 nM on CDK4.
In the case of `COC(=O)c1c(C)n(C2CCCC2)c2nc(Nc3ccc(N4CCNCC4)cn3)ncc12` [Example 385, 7-Cyclopentyl-6-methyl-2-(5-piperazin-1-yl-pyridin-2-ylamino)-7H-pyrrolo[2,3-d]pyrimidine-5-carboxylic acid methyl ester], the IC50 (in assay [1]; on CDK4) was greater than 10000 nM throughout.
For `CCOC(=O)C(C(C)C)n1ccc2cnc(Nc3ccc(N4CCNCC4)cc3)nc21` (centres unmarked) [Example 231], the values for the IC50 (in assay [1]; at CDK4) were greater than 10000 nM and less than 1000 nM, respectively.
Consider `Cc1cn(C2CCCC2)c2nc(Nc3ccccc3Cl)ncc12` [Example 443], for which the IC50 in assay [1] was greater than 10000 nM; on CDK4 it was 10000 nM.
For `Cc1ccc(Nc2ncc3ccn(C4CCCC4)c3n2)cc1` [Example 435], in that order: less than 10000 nM and greater than 10000 nM.
For `Cc1cn(C2CCCC2)c2nc(Nc3ccccc3F)ncc12` [Example 441] the same measures were greater than 10000 nM and 10000 nM.
`COc1ccccc1Nc1ncc2c(C)cn(C3CCCC3)c2n1` [Example 293]: the IC50 in assay [1] was greater than 10000 nM; on CDK4, 10000 nM.
For `CCC(C)n1ccc2cnc(Nc3ccc(N4CCNCC4)cc3)nc21` (centres unmarked) [Example 230] the same measures were less than 10000 nM and less than 1000 nM.
Consider `Cc1cc(-c2c(C)c3cnc(Nc4ccc(N5CCNCC5)cn4)nc3n2C2CCCC2)[nH]n1` [Example 404], for which the IC50 in assay [1] was greater than 10000 nM; at CDK4 it was less than 1000 nM.
Turning to `CC1CCCC(n2ccc3cnc(Nc4ccc(N5CCNCC5)cc4)nc32)C1` (centres unmarked) [Example 242], the IC50 in assay [1] was less than 10000 nM; at CDK4 it was less than 1000 nM.
For `c1cc(N2CCNCC2)ccc1Nc1ncc2ccn(C34CC5CC(CC(C5)C3)C4)c2n1` [Example 245], in that order: less than 1000 nM and less than 1000 nM.
As for `COC(=O)c1c(C)n(C2CCCC2)c2nc(Nc3ccc(N4CCNCC4)cc3)ncc12` [Example 408], the IC50 (in assay [1]; on CDK4) was greater than 10000 nM each time.
Regarding `CCC(CC)n1c(C(C)=O)cc2cnc(Nc3ccc(N4CCN(C(C)=O)CC4)cc3)nc21` [Example 377, 1-[2-[4-(4-Acetyl-piperazin-1-yl)-phenylamino]-7-(1-ethyl-propyl)-7H-pyrrolo[2,3-d]pyrimidin-6-yl]-ethanone], the IC50 (in assay [1]; on CDK4) was less than 1000 nM in each case.
Regarding `Cc1cn(C2CCCC2)c2nc(Nc3ccc(N4CCN(S(C)(=O)=O)CC4)cn3)ncc12` [Example 287], the IC50 was greater than 10000 nM in assay [1] and 10000 nM on CDK4.
For `NC1CCC(n2ccc3cnc(Nc4ccc(N5CCNCC5)cc4)nc32)CC1` (centres unmarked) [Example 243] the same measures were less than 1000 nM and less than 1000 nM.
For `CCC(CC)n1c(C(=O)N(C)C)cc2cnc(Nc3ccc(N4CCNCC4)cc3)nc21` [Example 335, 7-(1-ethyl-propyl)-2-(4-piperazin-1-yl-phenylamino)-7H-pyrrolo[2,3-d]pyrimidine-6-carboxylic acid dimethyl amide], the IC50 is less than 10000 nM in assay [1] and less than 1000 nM at CDK4.
For `CCC(CC)n1c(-c2cnco2)cc2cnc(Nc3ccc(N4CCN(C(C)=O)CC4)cc3)nc21` [Example 363, 1-(4-{4-[7-(1-Ethyl-propyl)-6-oxazol-5-yl-7H-pyrrolo[2,3-d]pyrimidin-2-ylamino]-phenyl}-piperazin-1-yl)-ethanone], in that order: less than 1000 nM and less than 1000 nM.
As for `O=C(O)[C@@H]1CCC(n2ccc3cnc(Nc4ccc(N5CCNCC5)cc4)nc32)C1` (some centres unmarked) [Example 248], the IC50 in assay [1] was less than 10000 nM; on CDK4, less than 1000 nM.
`Cc1cn(C2CCCC2)c2nc(Nc3ccc(F)cc3)ncc12` [Example 442]: the IC50 in assay [1] is less than 10000 nM; at CDK4 it was 10000 nM.
Regarding `Cc1cn(C2CCCC2)c2nc(Nc3cccc(Cl)c3)ncc12` [Example 299], the IC50 in assay [1] is less than 10000 nM; at CDK4 it was 10000 nM.
Regarding `c1cc(N2CCNCC2)ccc1Nc1ncc2ccn(C3CCCCC3)c2n1` [Example 246], the IC50 (in assay [1]; on CDK4) was less than 1000 nM each time.
Turning to `Cc1cn(-c2ccccc2)c2nc(Nc3ccc(N4CCNCC4)cc3)ncc12` [Example 273], the IC50 (in assay [1]; on CDK4) was greater than 10000 nM each time.
Consider `CCC(CC)n1c(C(C)O)cc2cnc(Nc3ccc(N4CCN(C(C)=O)CC4)cc3)nc21` (centres unmarked) [Example 376, 1-(4-{4-[7-(1-Ethyl-propyl)-6-(1-hydroxy-ethyl)-7H-pyrrolo[2,3-d]pyrimidin-2-ylamino]-phenyl}-piperazin-1-yl)-ethanone], for which the IC50 was less than 10000 nM in assay [1] and less than 1000 nM on CDK4.
For `Cc1c(-c2cnco2)n(C2CCCC2)c2nc(Nc3ccc(N4CCNCC4)cn3)ncc12` [Example 399], the results for the IC50 (in assay [1]; on CDK4) were less than 10000 nM and less than 1000 nM, respectively.
With `CCC(CC)n1ccc2cnc(Nc3ccc(N4CCNCC4)cc3)nc21` [Example 202, [7-(1-Ethyl-propyl)-7H-pyrrolo[2,3-d]pyrimidin-2-yl]-(4-piperazin-1-yl-phenyl)-amine], the IC50 in assay [1] was less than 10000 nM; on CDK4, less than 1000 nM.
For `Cc1cn(C2CCCCC2)c2nc(Nc3ccc(N4CCNCC4)cn3)ncc12` [Example 426], in that order: greater than 10000 nM and less than 1000 nM.
For `Cc1c(C(=O)O)n(C2CCCC2)c2nc(Nc3ccc(N4CCNCC4)cn3)ncc12` [Example 444], in that order: greater than 10000 nM and less than 1000 nM.
